Molecular target: T1, human FFAR1 (GPR40) (Homo sapiens, UniProt O14842)
T1 construct: Flag; expressed in transfected cells; host or cells: HEK293T
Test: NFAT-RE-based reporter gene activity assay (Dual-Glo luciferase) for GPR40 agonistic activity in co-transfected HEK293T cells
Assay type: cell-based
Conditions: 4-hour treatment; for Efficacy (%): class symbols
Description: The pcDNA3.0-flag-FFAR1 (GPR40) plasmid was constructed using conventional molecular cloning methods. The main steps were as follows: The full-length cDNA sequence of human FFAR1 (GPR40) (NM_005303.3) was inserted into the HindIII and XbaI restriction sites of the pcDNA3.0 vector via PCR technology, resulting in the pcDNA3.0-flag-FFAR1 (GPR40) plasmid; pGL4.30 [luc2P NFAT-RE] (# E8481) and pRL-TK (#E2241) plasmids were both purchased from Promega; the plasmids were transformed into DH5α E. coli using the CaCl2 method, further cultured and amplified, and then purified using a plasmid extraction kit (TIANGEN, # DP117) to obtain the corresponding plasmid DNA.
HEK293T cells were seeded in a 96-well plate at a density of 1 × 10^4/well one day prior to plasmid transfection. Cell transfection was performed according to the instructions of the transfection reagent FuGENE® HD (Promega, # E2311). The main steps were as follows: Taking one well as an example, plasmids pcDNA3.0-flag-FFAR1 (GPR40), pGL4.30 [luc2P NFAT-RE], and pRL-TK were added at ratios of 50 ng, 50 ng, and 5 ng, respectively, into 10 µL of Opti-MEM™ I medium (Gibco, #11058021) and mixed thoroughly; then, 0.2 µL of FuGENE® HD was added, mixed thoroughly, and allowed to stand at room temperature for 5 minutes; finally, this 10 µL mixture was added to the cell well containing 100 µL of culture medium. 24 hours after co-transfection, the compounds were serially diluted at half-logarithmic intervals with 1 µM as the highest concentration, resulting in 10 concentration gradients, which were added to the cell culture medium for a 4-hour treatment.
After 4 hours of compound treatment, the cells were assayed according to the instructions of the Dual-Glo® Luciferase Assay System (Promega, # E2940). The main steps were as follows: 50 µL of culture medium was aspirated from each well and discarded, followed by the addition of 50 µL of Dual-Glo® Luciferase Reagent, and the mixture was shaken at room temperature for 10 minutes. Then, 80 µL of the lysate reaction solution was transferred to a white opaque optiPlate-96 well plate, and the luminescence signal of Firefly luciferase (Firefly-Luc) was measured using an MD i3x multifunctional microplate reader. Subsequently, 40 µL of Dual-Glo® Stop & Glo® Reagent was added, and the mixture was shaken at room temperature for 10 minutes. Finally, the luminescence signal of Renilla luciferase (Renilla-Luc) was measured using the MD i3x multifunctional microplate reader. The ratio of Firefly-Luc/Renilla-Luc was used as the compound's agonistic activity toward GPR40, and normalization was performed using the ratio of the solvent DMSO group. A dose-response curve was fitted using a four-parameter model with GraphPad Prism 8.0 software to calculate the EC50 value.

T1 sequence (O14842 whole entry): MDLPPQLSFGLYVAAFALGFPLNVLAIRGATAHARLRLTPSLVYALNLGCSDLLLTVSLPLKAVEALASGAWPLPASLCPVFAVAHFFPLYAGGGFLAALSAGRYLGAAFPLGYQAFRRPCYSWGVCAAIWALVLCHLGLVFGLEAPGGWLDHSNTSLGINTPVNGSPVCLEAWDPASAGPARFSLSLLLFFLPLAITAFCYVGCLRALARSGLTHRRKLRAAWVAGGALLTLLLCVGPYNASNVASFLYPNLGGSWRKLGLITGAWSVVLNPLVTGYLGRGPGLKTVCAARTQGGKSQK

Structure (SMILES) | EC50 [nM] | Efficacy (%)
CCCCC[C@H]1CC[C@H](c2nnc(-c3c(C4CCN(c5cccc(OC)c5)CC4)oc4cc(C(CC(=O)O)C5CC5)ccc34)o2)CC1 (relative stereo) [Compound 138] | 100 to 500 | †† (150 ≥ Efficacy (%) > 100)
COc1ccc(F)c(N2CCC(c3cc4ccc(C(CC(=O)O)C5CC5)cc4o3)CC2)c1 (centres unmarked) [Comparative Example 1, reference compound] | > 1000 | NA (NA indicates no activity)
CN1CCC(c2oc3cc(C(CC(=O)O)C4CC4)ccc3c2-c2cccc(C(C)(C)C)c2)CC1 (centres unmarked) [Compound 1] | > 1000 | † (100 ≥ Efficacy (%) > 50)
CC(C)(C)c1cccc(-c2c(-c3ccccc3)oc3cc(C(CC(=O)O)C4CC4)ccc23)c1 (centres unmarked) [Compound 2] | > 500 | †† (150 ≥ Efficacy (%) > 100)
Cc1ccc(N2CCC(c3oc4cc(C(CC(=O)O)C5CC5)ccc4c3-c3cccc(C(C)(C)C)c3)CC2)cc1 (centres unmarked) [Compound 3] | 100 to 500 | †† (150 ≥ Efficacy (%) > 100)
Cc1cccc(N2CCC(c3oc4cc(C(CC(=O)O)C5CC5)ccc4c3-c3cccc(C(C)(C)C)c3)CC2)c1 (centres unmarked) [Compound 4] | 100 to 500 | † (100 ≥ Efficacy (%) > 50)
Cc1ccccc1N1CCC(c2oc3cc(C(CC(=O)O)C4CC4)ccc3c2-c2cccc(C(C)(C)C)c2)CC1 (centres unmarked) [Compound 5] | 100 to 500 | ††† (Efficacy (%) > 150)
CCc1cccc(N2CCC(c3oc4cc(C(CC(=O)O)C5CC5)ccc4c3-c3ccc(C(C)(C)C)cc3)CC2)c1 (centres unmarked) [Compound 6] | > 500 | †† (150 ≥ Efficacy (%) > 100)
CC(C)(C)c1cccc(-c2c(C3CCN(c4ccc(F)cc4)CC3)oc3cc(C(CC(=O)O)C4CC4)ccc23)c1 (centres unmarked) [Compound 7] | 100 to 500 | †† (150 ≥ Efficacy (%) > 100)
CC(C)(C)c1cccc(-c2c(C3CCN(c4cccc(F)c4)CC3)oc3cc(C(CC(=O)O)C4CC4)ccc23)c1 (centres unmarked) [Compound 8] | > 500 | †† (150 ≥ Efficacy (%) > 100)
CC(C)(C)c1cccc(-c2c(C3CCN(c4ccccc4F)CC3)oc3cc(C(CC(=O)O)C4CC4)ccc23)c1 (centres unmarked) [Compound 9] | 100 to 500 | †† (150 ≥ Efficacy (%) > 100)
COc1ccc(N2CCC(c3oc4cc(C(CC(=O)O)C5CC5)ccc4c3-c3cccc(C(C)(C)C)c3)CC2)cc1 (centres unmarked) [Compound 10] | 100 to 500 | †† (150 ≥ Efficacy (%) > 100)
COc1cccc(N2CCC(c3oc4cc(C(CC(=O)O)C5CC5)ccc4c3-c3cccc(C(C)(C)C)c3)CC2)c1 (centres unmarked) [Compound 11] | 10 to 100 | ††† (Efficacy (%) > 150)
COc1cccc(N2CCC(c3oc4cc(C(CC(=O)O)C5CC5)ccc4c3-c3ccc(C(C)(C)C)cc3)CC2)c1 (centres unmarked) [Compound 13] | 100 to 500 | ††† (Efficacy (%) > 150)
CCOc1cccc(N2CCC(c3oc4cc(C(CC(=O)O)C5CC5)ccc4c3-c3ccc(C(C)(C)C)cc3)CC2)c1 (centres unmarked) [Compound 15] | 100 to 500 | ††† (Efficacy (%) > 150)
CC(C)(C)c1cccc(-c2c(C3CCN(c4cccc(C(F)(F)F)c4)CC3)oc3cc(C(CC(=O)O)C4CC4)ccc23)c1 (centres unmarked) [Compound 20] | 100 to 500 | †† (150 ≥ Efficacy (%) > 100)
COc1ccccc1N1CCC(c2oc3cc(C(CC(=O)O)C4CC4)ccc3c2-c2cccc(C(C)(C)C)c2)CC1 (centres unmarked) [Compound 21] | 100 to 500 | †† (150 ≥ Efficacy (%) > 100)
CC(C)(C)c1cccc(-c2c(C3CCN(c4ccccc4Cl)CC3)oc3cc(C(CC(=O)O)C4CC4)ccc23)c1 (centres unmarked) [Compound 22] | 100 to 500 | †† (150 ≥ Efficacy (%) > 100)
CC(C)(C)c1cccc(-c2c(C3CCN(c4ccccc4OC(F)(F)F)CC3)oc3cc(C(CC(=O)O)C4CC4)ccc23)c1 (centres unmarked) [Compound 23] | 100 to 500 | †† (150 ≥ Efficacy (%) > 100)
CNc1cccc(N2CCC(c3oc4cc(C(CC(=O)O)C5CC5)ccc4c3-c3ccc(C(C)(C)C)cc3)CC2)c1 (centres unmarked) [Compound 24] | 100 to 500 | † (100 ≥ Efficacy (%) > 50)

Structure (SMILES) | EC50 [nM] | Efficacy (%)
CSc1cccc(N2CCC(c3oc4cc(C(CC(=O)O)C5CC5)ccc4c3-c3ccc(C(C)(C)C)cc3)CC2)c1 (centres unmarked) [Compound 26] | 100 to 500 | †† (150 ≥ Efficacy (%) > 100)
CC(C)(C)c1ccc(-c2c(C3CCN(c4cccc(S(C)(=O)=O)c4)CC3)oc3cc(C(CC(=O)O)C4CC4)ccc23)cc1 (centres unmarked) [Compound 27] | 100 to 500 | † (100 ≥ Efficacy (%) > 50)
COc1cccc(N2CCC(c3oc4cc([C@@H](CC(=O)O)C5CC5)ccc4c3-c3cccc(C)c3)CC2)c1 [Compound 28] | 100 to 500 | ††† (Efficacy (%) > 150)
COc1cccc(-c2c(C3CCN(c4cccc(OC)c4)CC3)oc3cc(C(CC(=O)O)C4CC4)ccc23)c1 (centres unmarked) [Compound 29] | 100 to 500 | †† (150 ≥ Efficacy (%) > 100)
C=C(C)c1ccc(-c2c(C3CCN(c4cccc(OC)c4)CC3)oc3cc(C(CC(=O)O)C4CC4)ccc23)cc1 (centres unmarked) [Compound 30] | 100 to 500 | †† (150 ≥ Efficacy (%) > 100)
CSc1cccc(N2CCC(c3oc4cc(C(CC(=O)O)C5CC5)ccc4c3-c3cccc(C(C)(C)C)c3)CC2)c1 (centres unmarked) [Compound 31] | 100 to 500 | †† (150 ≥ Efficacy (%) > 100)
COc1ccnc(N2CCC(c3oc4cc(C(CC(=O)O)C5CC5)ccc4c3-c3ccc(C(C)(C)C)cc3)CC2)c1 (centres unmarked) [Compound 32] | 100 to 500 | †† (150 ≥ Efficacy (%) > 100)
COc1cccc(N2CCC(c3oc4cc([C@@H](CC(=O)O)C5CC5)ccc4c3-c3ccc(OC(C)C)cc3)CC2)c1 [Compound 33] | 10 to 100 | †† (150 ≥ Efficacy (%) > 100)
COc1cccc(N2CCC(c3oc4cc([C@@H](CC(=O)O)C5CC5)ccc4c3-c3cccc(NC(C)C)c3)CC2)c1 [Compound 34] | 10 to 100 | †† (150 ≥ Efficacy (%) > 100)
COc1cccc(N2CCC(c3oc4cc(C(CC(=O)O)C5CC5)ccc4c3-c3csc(C)c3)CC2)c1 (centres unmarked) [Compound 35] | 100 to 500 | †† (150 ≥ Efficacy (%) > 100)
COc1cccc(N2CCC(c3oc4cc(C(CC(=O)O)C5CC5)ccc4c3-c3cnn(C)c3)CC2)c1 (centres unmarked) [Compound 36] | 100 to 500 | †† (150 ≥ Efficacy (%) > 100)
CCn1cc(-c2c(C3CCN(c4cccc(OC)c4)CC3)oc3cc(C(CC(=O)O)C4CC4)ccc23)cn1 (centres unmarked) [Compound 37] | 100 to 500 | †† (150 ≥ Efficacy (%) > 100)
CC(C)(C)n1cc(-c2c(C3CCN(c4ccccc4)CC3)oc3cc(C(CC(=O)O)C4CC4)ccc23)cn1 (centres unmarked) [Compound 39] | 100 to 500 | ††† (Efficacy (%) > 150)
CC(C)(C)n1cc(-c2c(C3CCN(c4cccc(F)c4)CC3)oc3cc(C(CC(=O)O)C4CC4)ccc23)cn1 (centres unmarked) [Compound 41] | 100 to 500 | †† (150 ≥ Efficacy (%) > 100)
CC(C)(C)n1cc(-c2c(C3CCN(c4cccc(OC(F)F)c4)CC3)oc3cc(C(CC(=O)O)C4CC4)ccc23)cn1 (centres unmarked) [Compound 43] | 100 to 500 | †† (150 ≥ Efficacy (%) > 100)
COc1ccc(C#N)c(N2CCC(c3oc4cc(C(CC(=O)O)C5CC5)ccc4c3-c3cnn(C(C)(C)C)c3)CC2)c1 (centres unmarked) [Compound 44] | 100 to 500 | †† (150 ≥ Efficacy (%) > 100)
CC(C)(C)n1cc(-c2c(C3CCN(c4cccc(C5CC5)c4)CC3)oc3cc(C(CC(=O)O)C4CC4)ccc23)cn1 (centres unmarked) [Compound 45] | 100 to 500 | †† (150 ≥ Efficacy (%) > 100)
COc1cccc(N2CCC(c3oc4cc(C(CC(=O)O)C5CC5)ccc4c3-c3cnn(C(C)(C)CF)c3)CC2)c1 (centres unmarked) [Compound 47] | 100 to 500 | †† (150 ≥ Efficacy (%) > 100)
COCC(C)(C)n1cc(-c2c(C3CCN(c4cccc(OC)c4)CC3)oc3cc(C(CC(=O)O)C4CC4)ccc23)cn1 (centres unmarked) [Compound 48] | 100 to 500 | †† (150 ≥ Efficacy (%) > 100)
COc1cccc(N2CCC(c3oc4cc([C@@H](CC(=O)O)C5CC5)ccc4c3-c3nnc(C(C)(C)C(F)(F)F)o3)CC2)c1 [Compound 49] | ≤ 10 | †† (150 ≥ Efficacy (%) > 100)

Source: patent EP4682145A1, “BENZOHETEROCYCLIC COMPOUND, AND PREPARATION METHOD THEREFOR AND USE THEREOF” (Cascade Pharmaceuticals, Inc., priority 2023, dated 2024)
